The test system of experiment [1] is Jurkat cells. The experiment in a line: Jurkat cell adhesion system (adhesion to immobilized human fibronectin, PMA-stimulated). Type of experiment: cell-based. The conditions noted are these: concentration inhibiting by 50% the PMA-stimulated increase in number of adhered Jurkat cells on human fibronectin. On the procedure: Evaluation of Compounds in Jurkat Cell Adhesion System
<Immobilization of Human Fibronectin in 96-Well Plate>
Human fibronectin (Becton Dickinson Biosciences) was diluted with phosphate-buffered saline (hereinafter abbreviated as PBS; Sigma) to 0.1-0.01 μg/ml, and the diluted solution was added to a 96-well plate (Becton Dickinson) at 50μ/well, and allowed to stand overnight at 4° C. On the following day, the supernatant was removed from the plate, and then PBS containing 1% bovine serum albumin (hereinafter abbreviated as BSA; Sigma) was added thereto at 100 μl/well and incubation was performed at 37° C. for 2 hours in a CO2 incubator (Hirasawa).
The supernatant was removed from each plate and Jurkat cells suspended in RPMI-1640 (Sigma) containing 1 mg/ml BSA were added at 80 μl/well for 2.5×10^5 cells/well. The compound diluted to different concentrations with RPMI-1640 containing 1 mg/ml BSA was immediately added at 10 μl/well, and then 100 nM phorbol myristate acetate (hereinafter abbreviated as PMA; Sigma) in RPMI-1640 containing 1 mg/ml BSA was added at 10 μl/well and the plate was incubated in a CO2 incubator at 37° C. for 45-60 minutes. The supernatant was removed from the plate and each well was washed several times with 100 μl/well of RPMI-1640, after which 50 mM citrate buffer (pH 5.0) containing 3.75 mM p-nitrophenol-N-acetyl-β-D-glucosaminide (Sigma) and 0.25% Triton X-100 (Sigma) were added at 60 μl/well, and the mixture was placed in a CO2 incubator and incubated at 37° C. for 45 minutes. After incubation, 50 mM glycine buffer (pH 10.4) containing 5 mM EDTA was added at 90 μl/well, and the absorbance at 405 nm was measured with an EL340 Automated Microplate Reader (BIO-TEK) to determine the adhered cell count. The concentration of each compound which inhibited the increase in the number of adhered cells by the PMA-stimulation by 50% was recorded as the IC50 (μM).

In experiment [2] the test system is human peripheral blood neutrophils. As to the kind of experiment: Human peripheral blood neutrophil adhesion system (adhesion to immobilized HUVEC, PMA-stimulated). Type of experiment: cell-based. Conditions: concentration inhibiting by 50% the PMA-stimulated increase in number of adhered BCECF-AM labeled neutrophils on HUVEC immobilized plate. Here is the method: Evaluation of Compounds in Human Peripheral Blood Neutrophil Adhesion System
<Preparation of Human Peripheral Blood Neutrophils>
To a plastic centrifugation tube containing 100 units of heparin sodium (Shimizu Pharmaceutical) was added 25 ml of fresh blood sampled from a healthy human. After adding and mixing therewith 8 ml of physiological saline (Otsuka Pharmaceutical) containing 6% Dextran (Nacalai), the mixture was allowed to stand room temperature for 45 minutes for sedimentation of the erythrocytes. The resultant supernatant was transferred to another plastic centrifugation tube and combined with an equivalent volume of phosphate-buffered saline (hereinafter abbreviated as PBS; Sigma), and then centrifuged at 1600 rpm for 7 minutes at room temperature. The obtained hematocyte fraction was suspended in 4 ml of PBS, and the suspension was superposed on 4 ml of Ficoll-Paque™ PLUS (Amersham Biosciences). The resultant bilayer liquid was centrifuged at 2000 rpm for 30 minutes at room temperature, after which the supernatant was removed and the precipitate was suspended in 10 ml of PBS and centrifuged at 1200 rpm for 7 minutes, and the supernatant was removed. The resulting precipitate was suspended in 0.5 ml of PBS again, and then 10 ml of distilled water (Otsuka Pharmaceutical) was added, 0.5 ml of an aqueous solution containing 3 M NaCl was immediately added to restore isotonicity, the mixture was centrifuged at 1200 rpm for 7 minutes, and the obtained precipitate was suspended in PBS containing 1 mg/ml bovine serum albumin (hereinafter abbreviated as BSA; Sigma) again and stored in ice until being used for the experiment.
<Fluorescent Labeling of Human Peripheral Blood Neutrophils>
The obtained neutrophils were suspended in PBS containing 1 mg/ml BSA at 2×10^7 cells/ml. BCECF-AM (Dojin) was added to a final concentration of 5 μM, and the mixture was incubated at 37° C. for 45 minutes. It was then rinsed twice with PBS containing 1 mg/ml BSA by centrifugation, suspended again in PBS containing 1 mg/ml BSA at 5×10^7 cells/ml, and stored in ice until use.
<Preparation of HUVEC Immobilized Plate>
Human umbilical vein endothelial cells (hereinafter abbreviated as HUVEC) were suspended in MCDB131 medium (Chlorella Industries) containing 10% fetal calf serum and 30 μg/ml endothelial cell growth supplement (Becton Dickinson Bioscience). The suspension was added at 7.5×10^3 cells/well to a 96-well plate (Iwaki) immobilized with type I collagen, and cultured for 3 days in a CO2 incubator (Hirasawa). Upon confirming confluency of the cells, the supernatant was discarded, the plate was rinsed twice with PBS, and then PBS containing 0.1% glutaraldehyde (Kanto Kagaku) was added at 100 μl/well and the HUVECs were immobilized for 5 minutes. The supernatant was discarded and the plate was washed twice with PBS, and then PBS was added at 100 μl/well and the mixture was stored at 4° C. until use.
To 6.5 ml of RPMI-1640 medium (Sigma) containing 1 mg/ml of BSA were added 0.5 ml of a suspension of BCECF-AM labeled neutrophils at 5×10^7/ml stored in ice, which was mixed, and the mixture was added at 80 μl/well to a HUVEC immobilized plate. […] The supernatant was removed from the plate, which was then washed several times with RPMI-1640 at 100 μl/well, and then PBS containing 0.1% NP-40 (Calbiochem) was added thereto at 100 μl/well and the fluorescent intensity was measured with an ARVO™SX 1420 multi label counter (Wallac) to determine the number of adhered cells. […]

Experiment [3] relates to DSS-induced colitis. As to the kind of experiment: DSS-induced colitis model. The conditions noted are these: 30 mg/kg orally once a day for 5-7 successive days; 1-3% DSS in water for 5-7 days. Type of experiment: in vivo, Balb/c mice. The source says:
Evaluation of Compounds in DSS-Induced Colitis Model
A 1-3% solution of dextran sulfate sodium (hereinafter abbreviated as DSS; ICN) in purified water (Otsuka Pharmaceutical) was fed freely to 6- to 7-week-old male Balb/c mice (Charles River Japan) for 5-7 days to induce colitis. Disease Activity Index (hereinafter abbreviated as DAI) scored based on fecal hardness, blood content in feces and body weight change, the number of neutrophils infiltrating the colon and the length of the colon were used as indexes to evaluate compounds. Each compound was suspended or dissolved in an aqueous solution containing 0.5% methyl cellulose (Wako), and orally administered at 30 mg/kg once a day, for 5-7 successive days.

SMILES strings stand for the structures.

For orientation: IC50 means the midpoint of a concentration-inhibition curve.

As to `CCCCN1CCN(c2cc(C#N)ccc2[C@H]2CC[C@@H](C(C)(C)C)CC2)CC1.Cl` [Example 12, cis-4-(4-t-Butylcyclohexyl)-3-(4-butylpiperazine-1-yl)benzonitrile hydrochloride], the IC50 came to 3.1 µM in experiment [1] and 18.3 µM in experiment [2]. Also, the “improvement in comparison with the DSS control group (DAI, number of neutrophils infiltrating the colon, length of the colon)” value in experiment [3] was “particularly good improvement”.
For `CCCCN1CCN(c2cc(C#N)ccc2[C@H]2CC[C@H](C(C)(C)C)CC2)CC1.Cl` [Example 13, trans-4-(4-t-Butylcyclohexyl)-3-(4-butylpiperazin-1-yl)benzonitrile hydrochloride] the same measures were 3.9 µM, 53.9 µM and “particularly good improvement”.

These data come from patent US7410971B2, “1,2-di(cyclic)substituted benzene compounds” (Eisai R&D Management Co., Ltd., priority 2003, dated 2008).
